Data taken from article PMC10388311, “Innovative Strategy toward Mutant CFTR Rescue in Cystic Fibrosis: Design and Synthesis of Thiadiazole Inhibitors of the E3 Ligase RNF5” (Journal of Medicinal Chemistry, 2023).

Target: F508del-CFTR in CFBE41o– cells (Homo sapiens, UniProt Q99942)
Assay: CFTR immunoprecipitation and Western blot (CFTR expression and ubiquitylation)
Type: cell-based
Conditions: 24 h, 16 5 μM, VX-661 + VX-445 10 μM + 3 μM
Description: Finally, we evaluated ubiquitylation of mutant CFTR in CFBE41o^– cells following 24 h treatment with DMSO (vehicle), analogue 16, VX-661 + VX-445, and their combination. Subsequently, cells were treated for 4 h with DMSO alone or with MG-132 (10 μM; to block proteasomal degradation) and then lysed. Cell lysates were immunoprecipitated using an anti-CFTR antibody and then subjected to SDS-PAGE followed by Western blotting to evaluate CFTR expression and ubiquitylation status (Figure 9C–F). […] In brief, cells were lysed and, after centrifugation, the protein concentration in the supernatant was calculated using the BCA assay (Euroclone, Pero (MI), Italy) following supplier’s instructions An aliquot of supernatant corresponding to 600 μg of protein was incubated for 1 h with 2 μg/sample of rabbit polyclonal anti-CFTR antibody (Alomone Labs, Jerusalem, Israel), with rocking at room temperature (RT). […] Equal amounts of IP products were analyzed by Western blotting (20 μL). […] In brief, equal amounts of lysates (25 μg) or IP products (20 μL) were separated onto gradient 4–15% Criterion TGX Precast gels (Bio-rad laboratories Inc.), transferred to a nitrocellulose membrane with a Trans-Blot Turbo system (Bio-rad Laboratories Inc.), and analyzed by Western blotting. […]

Sequence of F508del-CFTR in CFBE41o– cells (Q99942 2-180): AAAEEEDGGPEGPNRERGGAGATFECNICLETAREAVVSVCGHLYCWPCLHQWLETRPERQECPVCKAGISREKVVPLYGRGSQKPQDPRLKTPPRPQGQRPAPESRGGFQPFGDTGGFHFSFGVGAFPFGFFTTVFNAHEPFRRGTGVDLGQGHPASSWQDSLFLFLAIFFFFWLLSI
Sequence of F508del-CFTR in CFBE41o– cells (P13569 with tags, fused parts or gaps DEL508-508 partner): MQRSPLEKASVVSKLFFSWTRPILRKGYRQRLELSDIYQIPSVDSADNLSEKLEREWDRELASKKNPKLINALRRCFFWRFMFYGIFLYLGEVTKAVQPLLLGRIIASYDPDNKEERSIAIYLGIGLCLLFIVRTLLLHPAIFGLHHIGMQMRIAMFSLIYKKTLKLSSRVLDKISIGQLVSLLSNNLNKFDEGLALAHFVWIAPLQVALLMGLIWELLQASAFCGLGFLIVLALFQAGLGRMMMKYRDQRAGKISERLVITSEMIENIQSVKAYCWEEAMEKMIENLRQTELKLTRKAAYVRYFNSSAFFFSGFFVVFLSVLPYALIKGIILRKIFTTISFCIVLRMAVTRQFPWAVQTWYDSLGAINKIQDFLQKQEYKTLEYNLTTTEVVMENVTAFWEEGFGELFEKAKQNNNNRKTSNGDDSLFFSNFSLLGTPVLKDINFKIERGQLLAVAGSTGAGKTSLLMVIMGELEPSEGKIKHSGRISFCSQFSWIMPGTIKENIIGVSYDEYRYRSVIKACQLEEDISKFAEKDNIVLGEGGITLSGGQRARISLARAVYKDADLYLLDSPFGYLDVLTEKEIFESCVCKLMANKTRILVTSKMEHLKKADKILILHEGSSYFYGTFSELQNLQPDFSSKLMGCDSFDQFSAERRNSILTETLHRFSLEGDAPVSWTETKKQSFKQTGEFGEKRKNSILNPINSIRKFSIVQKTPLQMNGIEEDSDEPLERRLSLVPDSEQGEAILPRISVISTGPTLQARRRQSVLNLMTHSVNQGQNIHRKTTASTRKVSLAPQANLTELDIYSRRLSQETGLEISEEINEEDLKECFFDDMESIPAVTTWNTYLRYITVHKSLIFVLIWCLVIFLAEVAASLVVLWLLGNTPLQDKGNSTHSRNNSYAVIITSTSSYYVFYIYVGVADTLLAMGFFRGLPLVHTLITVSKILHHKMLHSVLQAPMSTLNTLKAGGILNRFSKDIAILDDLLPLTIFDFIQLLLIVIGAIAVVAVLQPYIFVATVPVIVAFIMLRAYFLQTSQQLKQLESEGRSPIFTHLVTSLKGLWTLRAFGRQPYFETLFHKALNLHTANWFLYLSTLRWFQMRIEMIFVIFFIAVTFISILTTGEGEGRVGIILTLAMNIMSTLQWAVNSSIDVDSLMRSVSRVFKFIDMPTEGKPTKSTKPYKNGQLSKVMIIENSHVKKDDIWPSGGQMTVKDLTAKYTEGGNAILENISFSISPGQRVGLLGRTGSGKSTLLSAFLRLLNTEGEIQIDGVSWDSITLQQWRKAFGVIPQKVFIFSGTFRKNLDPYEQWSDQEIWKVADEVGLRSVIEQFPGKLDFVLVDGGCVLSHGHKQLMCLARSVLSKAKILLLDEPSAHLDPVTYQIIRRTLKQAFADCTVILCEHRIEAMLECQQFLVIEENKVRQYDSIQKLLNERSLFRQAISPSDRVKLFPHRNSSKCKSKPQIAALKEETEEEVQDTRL

## COc1cccc(Cn2c(C)ns/c2=N\C(=N\c2ccccc2)c2ccccc2)c1 [Compound 16, (E)-N-((Z)-4-(3-Methoxybenzyl)-3-methyl-1,2,4-thiadiazol-5(4H)-ylidene)-N′-phenylbenzimidamide]
  rescue of mutant CFTR (mature form, band C): very modest
